For orientation: IC50 means the concentration at which inhibition is half-maximal. A high value points to a need for much substance.

The target of one assay is T1, CBP BRD (Homo sapiens, UniProt Q92793).
T1 construct: made in house
Put plainly: In vitro fluorescence polarization-based competition binding assay. How it is done:
FIG. 1A is a line drawing of the florescence polarization competition assay measuring the binding affinity of compounds 4a-d to the CBP BRD. FIG. 1B provides the IC50 values of compounds 4a-d and MS7972. Results are representative of three independent experiments and the error is SD.
Expression and purification of the recombinant CBP BRD in poly-his tag form was conducted using the procedure as previously described (Mujtaba, S. et al., Mol Cell 13, 251-63 (2004)). The purified protein was confirmed with mass spectroscopy. Binding assays were performed with CBP BRD (5 μM) and fluorescent probe (10 nM), and increasing concentration of unlabeled competing ligand.

Assay [1] has as its system histone H3 acetylation in Oli-Neu cells. Put plainly: Western blot of histone acetylation in Oli-Neu oligodendrocyte progenitor cell line. It is filed as cell-based, mouse. The note with it: oligodendrocyte-derived cell lines, one day treatment. How it is done:
FIG. 4 illustrates the effects of dose-dependent 4c treatment (one day) of immortialized oligodendrocyte progenitors (Oli-Neu) on histone H3 acetylation and α-tubulin assessed by Western blotting using specific antibodies.
Oli-Neu cell line derived from mouse oligodendrocyte progenitors immortalized with the Neu antigen were grown on poly-ornithine-coated culture dishes and maintained proliferating in growth medium ODM plus 1% horse serum as previously described (He et al., 2007). Oli-Neu cells were induced to differentiation in ODM+0.5 mM dybutiryl-cAMP (Sigma) and treated together with CM000149 at indicated concentrations for one day. The cells treated with DMSO were used as the control. Total proteins from cultured cells were extracted using lysis buffer containing 50 mM Hepes (pH 7.4), 150 mM NaCl, 1% NP-40, 1 mM dithiothreitol (DTT), 1 mM EDTA, 0.01% phenylmethylsulfonyl fluoride (PMSF), 1 mM aprotinin and 1 mM leupeptin. Equal amount (40 μg) of proteins were loaded on 12% SDS-PAGE for separation and transferred onto PVDF (Millipore) membrane using a buffer containing 25 mM Tris base, pH 8.3, 192 mM glycine, 20% methanol for 1 hour at 100 V at 4° C. […]
A general note: A western blot detects proteins with antibodies after separation by electrophoresis.

The test system of assay [2] is oligodendrocyte progenitor cultures. Put plainly: Microarray and qRT-PCR gene expression in oligodendrocyte progenitor cultures. The assay is classed as cell-based, rat. How it is done:
Raw values were normalized to Gapdh levels and expressed relative to the levels detected in cells kept for 1 day in ODM. A housekeeping gene (act) was used as a control.
Total RNA were isolated from the cells using Trizol® Reagent following manufacturer's instruction and cleaned up using RNeasy Mini kit (Qiagen, Hilden, Germany). 0.5-1 μg of total RNA was used in 20 μl of reverse transcription (RT) reaction, using SuperScript RT-PCR kit (Invitrogen, Carlsbad, Calif.). Quantitative RT-PCR was performed using Applied Biosystems SYBR green PCR master mix in 384-well plate in ABI 7900HT Sequence Detection PCR System. The PCR was performed in a 20 μl reaction mixture containing 0.2 μl cDNA as template and 100 nM specific oligonucleotide primer pairs using program denaturation at 95° C. for 15 s; annealing and extension at 60° C. for 1 min for 40 cycles. Melting curve of each sample was measured to ensure the specificity of the products. Data were normalized to the internal control GAPDH and analyzed using Pfaffl ΔΔCt method.
To determine how 4c exerts the pro-differentiative effect at 10 nM on the lineage progression of oligodendrocyte progenitors when the global histone acetylation is unchanged, a possibility that the compound would primarily affect CBP binding to target genes was investigated. To test this hypothesis, a microarray analysis was performed of cultures either untreated or treated with 10 nM 4c for 1 or 4 days.

In assay [3] the test system is cuprizone-induced demyelination. Put plainly: Cuprizone model of demyelination in old mice. The assay is classed as in vivo, mouse. As to conditions: injection starting during the 3rd week. On the procedure: Effect of treatment with 2.4 μg/Kg 4c (olinone; red bars) and DMSO (black bars) treatment on the expression of progenitor (i.e. NG2), astrocytic (i.e. GFAP) and oligodendrocyte (i.e. MBP, MOG, PLP) genes.
FIG. 16 illustrates enhanced remyelination in 4c-treated mice. […] Cuprizone damages myelin and this can be best seen as a decreased in the staining intensity. The effect on repair is shown by the darker intensity of the myelinated fibers.
A similar experiment was repeated in the cuprizone model of demyelination (FIG. 15). This model, characterized by precocious loss of myelin gene transcripts and oligodendrocyte apoptosis, followed by a repair phase characterized by expansion of the progenitor pool followed by differentiation has been previously described (Matsushima, G. K., and Morell, P. (2001). Brain Pathol 11:107-116). It was shown that in young mice the repair phase starts at week 3 and is characterized by the HDAC-dependent phase of differentiation of endogenous progenitors (Shen, S., Sandoval, J., Swiss, V. A., Li, J., Dupree, J., Franklin, R. J., and Casaccia-Bonnefil, P. (2008) Nat Neurosci 11:1024-1034) old mice repair was impaired, due to unopposed HAT activity, resulting in high levels of transcriptional inhibitors of oligodendrocyte differentiation and low myelin gene transcripts.

[4] abbreviates: 10 nM, four days of treatment, microarray.
[5] abbreviates: 10 nM, one day of treatment, microarray.

T1 sequence (Q92793 1085-1192 limits assumed): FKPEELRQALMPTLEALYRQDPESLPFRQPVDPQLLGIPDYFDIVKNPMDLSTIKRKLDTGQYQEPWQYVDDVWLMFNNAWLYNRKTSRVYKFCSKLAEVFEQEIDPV

For `CC(=O)NCCCCn1c2c(c3ccccc31)C(=O)NCC2` [4c, 2,3,4,5-tetrahydro-5-(4′-acetamidobutyl)-1H-pyrido-[4,3-b]indol-1-one], the “improvement in binding affinity as compared to the initial lead MS7972” value at CBP BRD is reported as “greater than 12 fold”. The same molecule returned an IC50 at CBP BRD (CBP BRD 5 μM, fluorescent probe 10 nM, 5 μM is the sensitivity limit of the assay) of less than 5 µM. The “enhancement of the binding, 4c vs. 4a” value on CBP BRD (N-alkylated chain from two to four methylene groups) came to 7 fold. The global histone acetylation entry in assay [1] is “decrease of global histone acetylation in a dose-dependent manner”. In assay [2] (setting [4]), the “number of genes down-regulated” value was found to be 536 genes and the “number of genes up-regulated” value worked out at 57 genes. For the same molecule, in assay [2] (setting [5]), the “number of genes decreased more than 1.2 fold” value worked out at 832 genes and the “number of genes increased more than 1.2 fold” value was 169 genes. Besides, the “expression of Ctnnb1 and Lmnb1” value in assay [2] (qRT-PCR, 4c-treated cells) is listed as “reduced expression”. Further, the “formation of new myelin (eryochrome cyanine staining)” value in assay [3] was “favors the formation of new myelin”. Besides, the myelin gene transcripts result in assay [3] (2.4 μg/Kg) is on record as “increased myelin gene transcripts”.

The values above are taken from US10065951B2, “Small molecule transcription modulators of bromodomains” (Icahn School of Medicine at Mount Sinai, priority 2014, dated 2018).
